# In ChEMBL document CHEMBL1201862, “PubChem BioAssay data set” (2004):
#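 Five compound concentrations were applied to cells in 96-well plates for 48 hours; endpoints were derived by simple linear interpolation of the resulting dose-response curve. At the GI50, growth is halved.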 Calls of active or inactive are those of the source. Rule as the data show it: active = GI50 up to about 1.1 µM and inactive = higher.
# Columns and labels:
# Assay in all cases: NCI tumour cell line growth inhibition, 48 h
# [1] = test system: 786-0
# [2] = test system: A498
# [3] = test system: A549
# [4] = test system: ACHN
# [5] = test system: CAKI-1
# [6] = test system: DU-145
# [7] = test system: EKVX
# [8] = test system: HCC 2998
# [9] = test system: HCT-116
# [10] = test system: HCT-15
# [11] = test system: HL-60
# [12] = test system: HOP-62
# [13] = test system: HT-29
# [14] = test system: Hs-578T
# [15] = test system: K562
# [16] = test system: KM12
# [17] = test system: LOX IMVI
# [18] = test system: M14
# [19] = test system: MCF7
# [20] = test system: MDA-MB-231
# [21] = test system: MDA-MB-435
# [22] = test system: MDA-N
# [23] = test system: NCI-H23
# [24] = test system: NCI-H460
# [25] = test system: NCI/ADR-RES
# [26] = test system: OVCAR-3
# [27] = test system: OVCAR-5
# [28] = test system: OVCAR-8
# [29] = test system: PC-3
# [30] = test system: RPMI-8226
# [31] = test system: SF-268
# [32] = test system: SF-295
# [33] = test system: SK-MEL-28
# [34] = test system: SK-MEL-2
# [35] = test system: SK-MEL-5
# [36] = test system: SK-OV-3
# [37] = test system: SN12C
# [38] = test system: SNB-75
# [39] = test system: SR
# [40] = test system: SW-620
# [41] = test system: T47D
# [42] = test system: U-251
# [43] = test system: UACC-257
# [44] = test system: UACC-62
smiles,measurement,setting,value
N[C@H]1CCC[C@@H](O)C1O (some centres undefined),GI50,[1],> 100 µM (inactive)
same,GI50,[2],> 100 µM (inactive)
same,GI50,[3],> 100 µM (inactive)
same,GI50,[4],> 100 µM (inactive)
same,GI50,[5],> 100 µM (inactive)
same,GI50,[6],> 100 µM (inactive)
same,GI50,[7],> 100 µM (inactive)
same,GI50,[8],> 100 µM (inactive)
same,GI50,[9],> 100 µM (inactive)
same,GI50,[10],> 100 µM
same,GI50,[11],> 100 µM (inactive)
same,GI50,[12],> 100 µM (inactive)
same,GI50,[13],> 100 µM (inactive)
same,GI50,[14],> 100 µM (inactive)
same,GI50,[15],> 100 µM (inactive)
same,GI50,[16],> 100 µM (inactive)
same,GI50,[17],> 100 µM (inactive)
same,GI50,[18],> 100 µM (inactive)
same,GI50,[19],> 100 µM (inactive)
same,GI50,[20],> 100 µM (inactive)
same,GI50,[21],> 100 µM (inactive)
same,GI50,[22],> 100 µM (inactive)
same,GI50,[23],> 100 µM (inactive)
same,GI50,[24],> 100 µM (inactive)
same,GI50,[25],> 100 µM (inactive)
same,GI50,[26],> 100 µM (inactive)
same,GI50,[27],> 100 µM (inactive)
same,GI50,[28],> 100 µM (inactive)
same,GI50,[29],> 100 µM (inactive)
same,GI50,[30],> 100 µM (inactive)
same,GI50,[31],> 100 µM (inactive)
same,GI50,[32],> 100 µM (inactive)
same,GI50,[33],> 100 µM (inactive)
same,GI50,[34],> 100 µM (inactive)
same,GI50,[35],> 100 µM (inactive)
same,GI50,[36],> 100 µM (inactive)
same,GI50,[37],> 100 µM (inactive)
same,GI50,[38],> 100 µM (inactive)
same,GI50,[39],> 100 µM (inactive)
same,GI50,[40],> 100 µM (inactive)
same,GI50,[41],> 100 µM (inactive)
same,GI50,[42],> 100 µM (inactive)
same,GI50,[43],> 100 µM (inactive)
same,GI50,[44],> 100 µM (inactive)
